Like-named read-outs stand apart in the source and are kept apart here.
Experiments:
CAFs = assay: 2D cell viability in CAFs; assay type: cell-based, murine; settings: Mus musculus, 24 h, read-out: Reduction of Cell Viability 24 h IC50 in CAFs
Method: Table S1 IC50-values for reduction of cell viability determined in CAFs.
Compound Cell Viability 1
1 Cell viability of CAFs was determined 24 h post-treatment with the 2D cell viability assay. CAFs were seeded at a cell density of 2.5 × 10^3 cells per well. Compound concentration was applied in triplicates in a four-fold serial dilution starting at 1000 nM. 2 Duration of treatment. 3 Mean ± SD […]
50 µM. 4 Mean ± SD (n = 3). 5 Mean ± SD (n = 2).

NFκB [1] = assay: NFκB inhibition assay (2 h), NFκB-dependent nanoluc luciferase reporter; assay type: cell-based, human
Method: Experiments were performed according to the published protocol. On day 1, 4 × 10^4 NFκB-MDA-MB-231-nanoluc cells were seeded into white 96 well plates (Greiner; #655098). On day 2, the medium was replaced with starvation medium and the cells were pre-incubated for 20 min with either 100 µL of DMSO (Roth; #A994.1) alone at a concentration of maximal 0.1% or with the final concentration of the diluted compounds (Table 3). To activate NFκB signaling, cells were stimulated with 1 µg/mL LPS (Sigma-Aldrich; #L2630) beforehand. NFκB-dependent luciferase activity was measured according to the manufacturer`s protocol for the Nano-Glo Luciferase Assay System (Promega, Mannheim, Germany; #N1110). NFκB-dependent luminescence was determined as relative light units (RLU) using the microplate reader Spark® (Tecan, Männedorf, Switzerland).

NFκB [2] = assay: NFκB inhibition assay (24 h), NFκB-dependent firefly luciferase reporter; assay type: cell-based; settings: Homo sapiens, read-out: NFκB Inhibition 24 h IC50
Method: On day 1, 3 × 10^4 NFκB MDA-MB-231-firefly cells were seeded into white 96 well plates (Greiner; #655098). On day 2, the medium was replaced with starvation medium and the cells were pre-incubated for 20 min with either 100 µL of DMSO (Roth; #A994.1) alone at maximal 0.1%, or with the final concentration of the diluted compounds (Table 3). To activate NFκB signaling, cells were stimulated with 20 ng/mL TNFα (Peprotech, Hamburg, Germany; #300-01A). Cell lysis was performed in 20 µL 1× cell lysis buffer according to the manufacturer’s instruction for the Luciferase Assay System (Promega #E1500). NFκB-dependent luminescence was determined as relative light units (RLU) using the microplate reader Spark® (Tecan).

[3] = tested on: 3D co-culture spheroids of MDA-MB-231 and primary murine CAFs; assay: 3D cell viability (ATP content) in TNBC co-culture spheroids; assay type: cell-based, human MDA-MB-231; settings: for IC50: Mus musculus
Method: On day 1, 3000 cells were seeded into a low-attachment 96 well plate (Greiner; #650970). […] Cell viability was determined based on the ATP content in viable cells according to the manufacturer`s instructions (Promega #G9682). Co-culture spheroids were generated for 72 h before they were grown for another 72 h with or without exposure to the compounds. […] Cell viability-dependent luminescence was determined as relative light units (RLU) using the microplate reader Spark® (Tecan).

HIF = tested on: HIF; set-up: method as in earlier work; settings: luminal breast cancer cell line T47D; ref 62 (Chen et al.); cited from earlier work
MDA-MB-231 = assay: 2D cell viability (PrestoBlue resazurin) in MDA-MB-231; assay type: cell-based, human; settings: Homo sapiens
Method: Cell viability was determined based on resazurin-reduction in viable cells according to the PrestoBlue^TM Assay. On day 1, MDA-MB-231 (1.5 × 10^4 cells per well or 7.5 × 10^3 cells per well) were seeded into black 96 well plates (Greiner; #655090) in a total volume of 100 µL. On day 2, the compounds or DMSO (Roth; #A994.1) alone at maximal 0.1% were applied (final concentrations after serial dilution shown in Table 3). An amount of 20 µM staurosporine (Sigma-Aldrich; #S5921) served as a positive control. On day 3, the PrestoBlue^TM reagent (Invitrogen^TM, Darmstadt, Germany; #A13262) was applied according to the manufacturer`s instructions. Finally, cell viability-dependent fluorescence was recorded in relative fluorescence units (RFU) with excitation/emission (Exλ/Emλ) at 535/590 nm or 560/590 nm, using the microplate reader Spark® (Tecan).

HIF-1α = assay: HIF inhibition, HIF-mediated UnaG reporter expression; assay type: cell-based
Method: The HIF activity after treatment with compound (1s) or with the commercially available NFκB inhibitor BAY 11-7085 ((Hycultec, Beutelsbach, Germany; #HY-10257-10),) for 24 h was determined using the UnaG-reporter gene cell line MDA-MB-468-UnaG. On day 1, 1.5 × 10^4 MDA-MB-468-UnaG cells were seeded into a black 96 well plate (Greiner; #655090). […] HIF-mediated UnaG expression was recorded in z-stacked images using the CQ1 high-content imaging system (Yokogawa, Wehr, Germany; 100× g magnification). Beforehand, the UnaG fluorescence intensity was determined in UnaG-expressing cell clones (Figure S5).
Figure 7 Compound (1s) decreases HIF-dependent gene transcription. MDA-MB-468-UnaG cells were pre-treated for 1 h without (CTRL) or with compound (1s) or BAY 11-7085 (BAY) before being grown (a,b) in the absence (normoxia; CTRL) or (c,d) presence of 100 µM CoCl2 (hypoxia) for another 24 h. (a,c) Representative fluorescence images. Scale bar: 200 µm (b,d) Total fluorescence intensity of HIF-mediated UnaG was normalized to the CTRL group. Statistical difference was calculated with one-way ANOVA (b) vs. CTRL (normoxia) (ns = not significant, * p < 0.05). (d) vs. CTRL (hypoxia) (# p < 0.05); vs. CoCl2 (* p < 0.05, ** p < 0.01, *** p < 0.001). (b,d) Columns represent the mean ± SEM (n = 3).

[4] = Homo sapiens, NFκB-MDA-MB-231-nanoluc cells, 2-h treatment, mean ± SD, read-out: NFκB Inhibition 2 h IC50
[5] = NFκB-MDA-MB-231-firefly cells, 24-h treatment, 20 ng/mL TNFα, mean ± SD
[6] = MDA-MB-231, 3D co-culture spheroids, 72 h treatment, mean ± SD (n = 3), read-out: Reduction of Cell Viability 72 h IC50
[7] = MDA-MB-231 2D monolayer, 24 h post-treatment, mean ± SD, read-out: Reduction of Cell Viability 24 h IC50

Row | SMILES | IC50 (CAFs; CAFs, mean ± SD (n = 3)) | IC50 (NFκB [1]; [4]) | IC50 (NFκB [2]; [5]) | IC50 [3, 6] | HIF induction under low oxygen level (HIF) | IC50 (MDA-MB-231; [7]) | further results
1 | COc1cc2c3c(c4ccc(O)cc4c2cc1OC)[C@H](O)[C@@H]1CCCN1C3 [Compound (3), tylophoridicine E] | 26.7 ± 3.1 nM | 285 ± 60.4 nM | 114 ± 17.9 nM | 477 ± 160 nM | blockade of HIF induction | 55.3 ± 13.2 nM | 
2 | COc1ccc2c(c1)c1cc(O)c(OC)cc1c1c[n+]3c(cc21)CCC3 [Compound (6), anhydrodehydrotylophorinidine] | > 1000 nM | > 1000 nM | > 1000 nM | > 1000 nM |  | > 1000 nM | cytotoxic activity [3]: no cytotoxic activity
3 | CC(C)(C)c1ccc(S(=O)(=O)/C=C/C#N)cc1 [BAY 11-7085, reference compound] |  |  |  |  |  |  | IC50 (NFκB [1]; NFκB-MDA-MB-231-nanoluc cells, 2-h treatment, mean ± SD, read-out: NFκB Inhibition 2 h IC50): 5500 ± 2000 nM; effect on HIF-1α-mediated UnaG expression (HIF-1α; normoxia): no significant effects; CoCl2-induced increase in HIF-1α-activity (HIF-1α; pre-treatment before CoCl2-simulated hypoxia, 6 µM BAY 11-7085, 2, 5, 10, 20 nM (1s)): blocked
4 | COc1ccc2c3c(c4cc(OC)c(OC)cc4c2c1)CN1CCC[C@H]1[C@@H]3O [tylophorinine] |  |  |  |  | blockade of HIF induction |  | 
5 | COc1ccc2c(c1)c1cc(OC)c(OC)cc1c1c[n+]3c(cc21)CCC3 [Compound (5), tylophoridicine D] | > 1000 nM | > 1000 nM | > 1000 nM | > 1000 nM | not | > 1000 nM | cytotoxic activity ([3]; in MDA-MB-231 or in the 3D co-culture spheroids): no cytotoxic activity
6 | COc1ccc2c3c(c4cc(OC)c(O)cc4c2c1)CN1CCC[C@H]1[C@H]3O [Compound (2), tylophorinidine] | 19.7 ± 3.7 nM | 212 ± 69.9 nM | 38.2 ± 14.2 nM | 442 ± 70.8 nM | blockade of HIF induction | 118 ± 35 nM | 
7 | COc1ccc2c3c(c4cc(OC)c(OC)cc4c2c1)CN1CCC[C@H]1C3 [Compound (4), 2-demethoxytylophorine] |  |  |  |  |  |  | IC50 (CAFs): 33.5 ± 12.7 nM; IC50 (NFκB [1]; Homo sapiens, 2 h, read-out: NFκB Inhibition 2 h IC50, NFκB-MDA-MB-231-nanoluc cells, 2-h treatment, mean ± SD): 83 ± 14.7 nM; IC50 (NFκB [2]; 24 h): 28.3 ± 5.6 nM; IC50 ([3]; MDA-MB-231, 72 h, read-out: Reduction of Cell Viability 72 h IC50, 3D co-culture spheroids, 72 h treatment, mean ± SD (n = 3)): 518 ± 76.8 nM; IC50 (MDA-MB-231; MDA-MB-231, 24 h, read-out: Reduction of Cell Viability 24 h IC50, MDA-MB-231 2D monolayer, 24 h post-treatment, mean ± SD): 127 ± 21.4 nM

From PMC9499467, “Phenanthroindolizidine Alkaloids Isolated from Tylophora ovata as Potent Inhibitors of Inflammation, Spheroid Growth, and Invasion of Triple-Negative Breast Cancer” (International Journal of Molecular Sciences, 2022)
